Like-named read-outs stand apart in the source and are kept apart here.
Experiments:
Format in all cases: in vivo
[1] = test system: Echinochloa crus-galli (ECHCG); assay: greenhouse post-emergence herbicidal efficacy against ECHCG
Procedure: (§1) All trials whose results are shown were conducted in a greenhouse by the methodology specified below. The effect of the inventive herbicidal compositions was examined on the following harmful plants 14 and 21 days after application:
(§2) Echinochloa crus-galli (ECHCG), Eleusine indica (ELEIN), Setaria viridis (SETVI), Amaranthus retroflexus (AMARE), Chenopodium album (CHEAL), Kochia scoparia (KCHSC), Solanum nigrum (SOLNI), Avena fatua (AVEFA), Bromus sterilis (BROST), Lolium multiflorum (LOLMU), Phalaris minor (PHAMI), Poa annua (POAAN), Galium aparine (GALAP), Matricaria inodora (MATIN) and Polygonum convolvulus (POLCO).
(§3) The harmful plant seeds were sown in pots (diameter 8 cm) with sandy loam soil and germinated under optimal conditions. The inventive herbicidal compositions or the active ingredients alone were applied post-emergence to the planted pots with a spray volume of 300 L/ha. The trial was conducted in a greenhouse under optimum growth conditions. The herbicidal effects were assessed visually by comparison of untreated and treated plants. The percentages mean: 0%=no effects, 100%=the plants die off completely). The percentages are used to calculate interactions between individual treatments and combination treatments according to S. R. Colby, Weeds 15, pages 20 to 22 (1967).
(§4) The abbreviations mean: • a.i.=active ingredient • E^C=expected value according to Colby (E^C=A+B−A×B/100) • Diff: =difference (%) of measured value from expected value (%) (measured value minus expected value)
(§5) Assessment: • measured value E is greater than E^C:->synergism (+ diff.) • measured value E equals E^C:->additive effect • measured value E is smaller than E^C:->antagonism(− diff.)

[2] = test system: Eleusine indica (ELEIN); assay: greenhouse post-emergence herbicidal efficacy against ELEIN; conditions: for pest or weed control at […]: 2.5 g of a.i./ha; for pest or weed control at 10 g/ha: 10 g of a.i./ha; for pest or weed control at 300 g/ha / pest or weed control at 1200 g/ha: read-out: Efficacy
Procedure: as §1, §2, §3, §4, §5

[3] = test system: Setaria viridis (SETVI); assay: greenhouse post-emergence herbicidal efficacy against SETVI
Procedure: as §1, §2, §3, §4, §5

[4] = test system: Amaranthus retroflexus (AMARE); assay: greenhouse post-emergence herbicidal efficacy against AMARE
Procedure: as §1, §2, §3, §4, §5

[5] = test system: Chenopodium album (CHEAL); assay: greenhouse post-emergence herbicidal efficacy against CHEAL
Procedure: as §1, §2, §3, §4, §5

[6] = test system: Bromus sterilis (BROST); assay: greenhouse post-emergence herbicidal efficacy against BROST
Procedure, shortened: (§6)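 Seeds were sown in 8 cm pots of sandy loam and germinated under optimal conditions. Compositions or single active ingredients were sprayed post-emergence at 300 L/ha in the greenhouse. Visual % damage versus untreated plants (0% none, 100% complete kill) was scored 14 and 21 days after application, with Colby expected values (E^C=A+B−A×B/100) used to judge synergism.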

[7] = test system: Lolium multiflorum (LOLMU); assay: greenhouse post-emergence herbicidal efficacy against LOLMU
Procedure, shortened: as §6

[8] = test system: Phalaris minor (PHAMI); assay: greenhouse post-emergence herbicidal efficacy against PHAMI
Procedure, shortened: as §6

[9] = test system: Poa annua (POAAN); assay: greenhouse post-emergence herbicidal efficacy against POAAN
Procedure, shortened: as §6

[10] = test system: Galium aparine (GALAP); assay: greenhouse post-emergence herbicidal efficacy against GALAP
Procedure, shortened: as §6

[11] = test system: Matricaria inodora (MATIN); assay: greenhouse post-emergence herbicidal efficacy against MATIN
Procedure, shortened: as §6

[12] = test system: Polygonum convolvulus (POLCO); assay: greenhouse post-emergence herbicidal efficacy against POLCO
Procedure, shortened: as §6

[13] = test system: DIGSA; assay: greenhouse post-emergence herbicidal efficacy against DIGSA
Procedure: as §1, §3, §4, §5

[14] = test system: Solanum nigrum (SOLNI); assay: greenhouse post-emergence herbicidal efficacy against SOLNI
Procedure: as §1, §2, §3, §4, §5

[15] = test system: Avena fatua (AVEFA); assay: greenhouse post-emergence herbicidal efficacy against AVEFA
Procedure, shortened: as §6

[16] = 14 days after application, 0.4 g of a.i./ha
[17] = 21 days after application, 0.4 g of a.i./ha
[18] = 14 days after application, 0.1 g of a.i./ha
[19] = 14 days after application, 2.5 g of a.i./ha
[20] = 14 days after application, 10 g of a.i./ha
[21] = 21 days after application, g of a.i./ha: A1-14 10, pyrasulfotole 100
[22] = 21 days after application, g of a.i./ha: A1-14 2.5, pyrasulfotole 25
[23] = 21 days after application, g of a.i./ha: A1-14 2.5, pyrasulfotole 100
[24] = 21 days after application, g of a.i./ha: A1-14 10, pyrasulfotole 25
[25] = 14 days after application, 0.5 g of a.i./ha
[26] = 14 days after application, 2 g of a.i./ha
[27] = 21 days after application, 0.5 g of a.i./ha
[28] = 21 days after application, 2 g of a.i./ha
[29] = 21 days after application, g of a.i./ha: A1-36 2.5, flurtamone 80
[30] = 21 days after application, g of a.i./ha: A1-36 2.5, flurtamone 320
[31] = 21 days after application, g of a.i./ha: A1-36 10, flurtamone 80
[32] = 21 days after application, g of a.i./ha: A1-36 10, flurtamone 320
[33] = 14 days after application, 400 g of a.i./ha
[34] = 14 days after application, 100 g of a.i./ha
[35] = 21 days after application, 400 g of a.i./ha
[36] = 21 days after application, 100 g of a.i./ha
[37] = 21 days after application, 2.5 g of a.i./ha
[38] = 21 days after application, 10 g of a.i./ha
[39] = Eleusine indica, post-emergence, 336 h, 14 days after application
[40] = Eleusine indica, post-emergence, 504 h, 21 days after application
[41] = 14 days after application, 300 g of a.i./ha
[42] = 14 days after application, 1200 g of a.i./ha
[43] = 21 days after application, 300 g of a.i./ha
[44] = 21 days after application, 1200 g of a.i./ha
[45] = Eleusine indica, post-emergence, 336 h
[46] = Eleusine indica, post-emergence, 504 h

Cc1nnc(NC(=O)c2ccc(C(F)(F)F)c([S+](C)[O-])c2Cl)o1 (stereo not shown) [A1-14]
25%: Efficacy [8, 20]
20%: Efficacy [2, 16] | Efficacy [12, 19] | Efficacy [12, 20]
15%: Efficacy [10, 24]
3%: Efficacy [6, 20] | Efficacy [12, 24] | Efficacy [12, 21]
10%: Efficacy [9, 19]
0%: Efficacy [1, 16] | Efficacy [1, 17] | Efficacy [2, 18] | Efficacy [3, 18] | Efficacy [3, 17] | Efficacy [4, 18] | Efficacy [5, 18] | Efficacy ([5]; 21 days after application, 0.1 g of a.i./ha) | Efficacy [6, 19] | Efficacy [6, 21] | Efficacy [7, 19] | Efficacy [7, 20] | Efficacy [8, 19] | Efficacy [8, 22] | Efficacy [8, 23] | Efficacy [9, 22] | Efficacy [9, 23] | Efficacy [10, 22] | Efficacy [12, 22] | Efficacy [12, 23] | Efficacy [13, 16] | Efficacy [13, 17]
50%: Efficacy [11, 19]
30%: Efficacy [11, 23]
60%: Efficacy [11, 20]

Cc1nnc(NC(=O)c2ccc(C(F)(F)F)c(S(C)(=O)=O)c2Cl)o1 [A1-36]
70%: Efficacy [4, 28]
65%: Efficacy [3, 28]
10%: Efficacy [1, 25] | Efficacy [15, 29] | Efficacy [15, 30] | Efficacy [13, 25] | Efficacy [13, 27]
0%: Efficacy [1, 27] | Efficacy [15, 19] | Efficacy [6, 19] | Efficacy [7, 31] | Efficacy [8, 19] | Efficacy [10, 29] | Efficacy [11, 29] | Efficacy [11, 30] | Efficacy [12, 19]
15%: Efficacy [15, 20] | Efficacy [15, 31] | Efficacy [15, 32] | Efficacy [11, 19] | Efficacy [11, 31] | Efficacy [11, 32]
3%: Efficacy [7, 20] | Efficacy [12, 31] | Efficacy [12, 32]
25%: Efficacy [10, 20] | Efficacy [10, 31] | Efficacy [10, 32]
40%: Efficacy [1, 26] | Efficacy [11, 20]
30%: Efficacy [2, 28] | Efficacy [8, 20]
20%: Efficacy [1, 28] | Efficacy [4, 27] | Efficacy [8, 31]
50%: Efficacy [2, 26] | Efficacy [14, 28]
5%: Efficacy [6, 29] | Efficacy [6, 30] | Efficacy [10, 19]

N#Cc1cc(Br)c(O)c(Br)c1 [bromoxynil]
85%: Efficacy [5, 33]
75%: Efficacy [5, 35]
40%: Efficacy [4, 34]
0%: Efficacy [1, 33] | Efficacy [1, 34] | Efficacy [1, 35] | pest or weed control at 100 g/ha ([2]; Eleusine indica, post-emergence, 336 h, 14 days after application, 100 g of a.i./ha) | pest or weed control at 400 g/ha ([2]; Eleusine indica, post-emergence, 336 h, 14 days after application, 400 g of a.i./ha) | Efficacy [3, 33] | Efficacy [3, 34] | Efficacy [3, 36] | Efficacy [3, 35] | Efficacy [13, 33] | Efficacy [13, 34] | Efficacy [13, 36] | Efficacy [13, 35]

CS(=O)(=O)c1cc(C(F)(F)F)ccc1C(=O)c1cnoc1C1CC1 [isoxaflutole]
10%: Efficacy [1, 19] | Efficacy [1, 37] | Efficacy [13, 20]
60%: Efficacy [1, 20] | Efficacy [1, 38] | pest or weed control at 10 g/ha [2, 39]
65%: Efficacy [14, 38]
0%: pest or weed control at […] [2, 40] | Efficacy [3, 37] | Efficacy [3, 38] | Efficacy [13, 38]
40%: Efficacy [4, 37]
20%: pest or weed control at […] [2, 39] | pest or weed control at 10 g/ha [2, 40]

O=c1[nH]c2c(c(=O)n1C1CCCCC1)CCC2 [lenacil]
0%: Efficacy [1, 41] | Efficacy [1, 42] | Efficacy [1, 43] | Efficacy [1, 44] | pest or weed control at 300 g/ha [2, 45] | pest or weed control at 1200 g/ha [2, 45] | pest or weed control at 300 g/ha [2, 46] | pest or weed control at 1200 g/ha [2, 46] | Efficacy [3, 41] | Efficacy [3, 42] | Efficacy [3, 43] | Efficacy [3, 44] | Efficacy [4, 42] | Efficacy [4, 43] | Efficacy [4, 44] | Efficacy [14, 41] | Efficacy [14, 42] | Efficacy [14, 43] | Efficacy [14, 44] | Efficacy [13, 41] | Efficacy [13, 42] | Efficacy [13, 43] | Efficacy [13, 44]

— patent US10111435B2, “Herbicidal compositions containing N-(1,3,4-oxadiazol-2-yl)-aryl carboxylic acid amides” (BAYER CROPSCIENCE AKTIENGESELLSCHAFT, priority 2013, dated 2018)
